From patent US8969554B2, “6-acyl-1,2,4-triazine-3,5-dione derivative and herbicides” (Kumiai Chemical Industry Co., Ltd., priority 2010, dated 2015)

Experiments:
Type in all cases: in vivo
Set-up in all cases: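 index 0 to 10 in 10% steps of herbicidal effect with 10 meaning complete death and 0 below 10%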
Echinochloa oryzicola = assay: Herbicidal activity by paddy field soil treatment (Test Example 1); details: 1000 g of effective component per hectare, evaluated on day 21 after the treatment, criteria of Table 72
Procedure: (§1) Test for Determining Herbicidal Activity by Paddy Field Soil Treatment A 100 cm^2 wide plastic pot was filled with a paddy field soil and, after watering and shuffling, seeds of each of Echinochloa oryzicola, Monochoria vaginalis, and Scirpus juncoides Rocxb. were sowed and watered to a depth of 3 cm. On the next day, the wettable powder obtained in view of Formulation example 1 was diluted with water and applied on water surface. The application amount was 1000 g of effective component per hectare. After that, the plants were cultivated in a greenhouse, and on day 21 after the treatment, evaluation was made by the criteria of Table 72 for determining the herbicidal effects. [table]

Monochoria vaginalis = assay: as above; details: 1000 g of effective component per hectare, evaluated on day 21 after the treatment, criteria of Table 72
Procedure: as §1

Scirpus juncoides Rocxb. = assay: as above; details: applied on water surface, 1000 g of effective component per hectare, day 21 after the treatment
Procedure: as §1

A. retroflexus [1] = assay: Herbicidal activity by field soil treatment (Test example 2); details: 1000 g effective component per hectare, day 21 after the treatment
Procedure: (§2) [table] Test for Determining Herbicidal Activity by Field Soil Treatment A 80 cm^2 wide plastic pot was filled with a field soil and seeds of each of Echinochloa crus-galli, foxtail, Indian millet, and A. retroflexus were sowed and then covered with soil. The wettable powder produced with reference to the Formulation example 1 was diluted water, and applied on the soil surface by using a small sprayer in an amount of 1000 liters per hectare so that the effective component is 1000 g per hectare. After that, the plants were cultivated in a greenhouse, and on day 21 after the treatment, evaluation was made by the criteria described in Table 72 for determining the herbicidal effects.

Echinochloa crus-galli [2] = assay: as above; details: 1000 g effective component per hectare, day 21 after the treatment
Procedure: as §2

A. retroflexus [3] = assay: Herbicidal activity by field foliage treatment (Test example 3); details: 1000 g effective component per hectare, day 14 after the treatment
Procedure: (§3) [table] Test for Determining Herbicidal Activity by Field Foliage Treatment A 80 cm^2 wide plastic pot was filled with a field soil and seeds of each of Indian millet and A. retroflexus were sowed and then incubated for 2 weeks in a green house. The wettable powder produced with reference to the Formulation example 1 was diluted water, and applied from the air to entire body of the plant as foliage treatment by using a small sprayer in an amount of 1000 liters per hectare so that the effective component is 1000 g per hectare. After that, the plants were cultivated in a greenhouse, and on day 14 after the treatment, evaluation was made by the criteria described in Table 72 for determining the herbicidal effects.

Indian millet [4] = assay: as above; details: 1000 g effective component per hectare, day 14 after the treatment
Procedure: as §3

Echinochloa crus-galli [5] = assay: as above; details: 1000 g effective component per hectare, day 14 after the treatment
Procedure: as §3, with “Test example 3” for “[table]”

Indian millet [6] = assay: Herbicidal activity by field soil treatment (Test example 2); details: 1000 g effective component per hectare, day 21 after the treatment
Procedure: as §2

SMILES	Herbicidal effects index number, Echinochloa oryzicola (Echinochloa oryzicola)	Herbicidal effects index number, Monochoria vaginalis (Monochoria vaginalis)	herbicidal effect index, S. juncoides Rocxb. (Scirpus juncoides Rocxb.)	herbicidal effect index, Amaranthus retroflexus (A. retroflexus [1])	herbicidal effect index, Echinochloa crus-galli (Echinochloa crus-galli [2])	herbicidal effect index, Amaranthus retroflexus (A. retroflexus [3])	herbicidal effect index, Abutilon theophrasti (Indian millet [4])	herbicidal effect index, Echinochloa crus-galli (Echinochloa crus-galli [5])	herbicidal effect index, Abutilon theophrasti (Indian millet [6])
CCCCCCn1c(=O)c(C(=O)C2=C(O)CCCC2=O)nn(C)c1=O [I-9]	8	8	8	10	7	10	10	10	
Cn1nc(C(=O)C2=C(O)CCCC2=O)c(=O)n(-c2ccc(Cl)cc2)c1=O [I-53]	10	7	10	10	8	10	10	8	10
Cc1ccc(-n2c(=O)c(C(=O)C3=C(O)CCCC3=O)nn(C)c2=O)cc1 [I-59]	10	10	10	10		10	10	7	10
COc1cccc(-n2c(=O)c(C(=O)C3=C(O)CCCC3=O)nn(C)c2=O)c1 [I-61]	8	10	10	10	8	10	10	9	10
Cn1nc(C(=O)C2=C(O)CCCC2=O)c(=O)n(-c2cccc(C(F)(F)F)c2)c1=O [I-64]	10	10	10	10	10	10	10	10	10
Cn1nc(C(=O)C2=C(O)CCCC2=O)c(=O)n(-c2ccc(C(F)(F)F)cc2)c1=O [I-65]	10	10	10	10	10	10	10	8	10
COc1ccc(-n2c(=O)c(C(=O)C3=C(O)CCCC3=O)nn(C)c2=O)c(OC)c1 [I-96]	8	10	10	10		10	9	7	10
Cc1ccc(-n2c(=O)c(C(=O)C3=C(O)CCCC3=O)nn(C)c2=O)c(F)c1 [I-108]	10	10	10	10		10	9		8
Cn1nc(C(=O)C2=C(O)CCCC2=O)c(=O)n(-c2ccc3c(c2)OCO3)c1=O [I-170]	10	10	10	10		10	10	10	10
Cc1ccc(-n2c(=O)c(C(=O)C3=C(O)CCCC3=O)nn(C)c2=O)nc1 [I-182]		8	9	10	7	9	9	8	10
Cn1nc(C(=O)C2=C(O)CCCC2=O)c(=O)n(N2CCSCC2)c1=O [I-203]	10	10	10	7	9	10	9	6	
CCOc1ccc(-n2c(=O)c(C(=O)C3=C(O)CCCC3=O)nn(C)c2=O)cc1 [I-268]	10	10	10	10		10	9	7	8
Cc1cnc(-n2c(=O)c(C(=O)C3=C(O)CCCC3=O)nn(C)c2=O)cn1 [I-292]	10	10	10		7	10	10	8	9
CSc1c(Cl)cc(-n2c(=O)c(C(=O)C3=C(O)CCCC3=O)nn(C)c2=O)cc1Cl [I-300]	10	10	10	10		10	8	9	10
CC(C)Cn1c(=O)c(C(=O)C2=C(O)CCCC2=O)nn(-c2ccccn2)c1=O [I-307]	8	9	8	10	7	9	10		9
Cn1nc(C(=O)C2=C(O)CCCC2=O)c(=O)n(-c2ccc(F)cc2)c1=S [I-480]	10		10	10	8	10	10	9	10
Cc1ccc(-n2c(=O)c(C(=O)O)nn(C)c2=O)nc1 [V-361]		10	10	8		10	9		10
